Reference: patent publication US8063101B2, “Carotenoid analogs and derivatives for the prevention of platelet aggregation” (Cardax Pharmaceuticals, Inc., priority 2007, dated 2011)
Several values for one entry are separate records, joined by “and”; a condition that tells them apart may be missing. Identical values can stand only once.

Legend:
platelet aggregation = assay: Ex vivo platelet aggregation induced with ADP or AA; format: in vivo, beagle dogs
Description: Whole blood (10 ml) was drawn from a right femoral vein cannula into a plastic syringe containing 3.7% sodium citrate as the anticoagulant (1:100 volume ratio of citrate to blood). A whole blood cell count was determined with an H-2000 cell counter (Texas International Laboratories, Inc., Culver City, Calif.). Platelet-rich plasma (PRP), the supernatant present after centrifugation of whole blood at 100×g for 10 min, was diluted with Platelet-poor plasma (PPP) to achieve a platelet count of approximately […]. PPP was prepared by centrifuging the remaining blood at 1,500×g for 10 min and discarding the bottom cellular layer. Ex vivo platelet aggregation was assessed by established spectrophotometric methods with the use of a four-channel aggregometer (BioData PAP-4; BioData Corp., Horsham, Pa.) by recording the increase in light transmission through a stirred suspension of PRP maintained at 37° C. Aggregation was induced with ADP (20 μM) or AA (0.65 mM). A subaggregatory concentration of epinephrine (550 nM) was used to prime the platelets before addition of the agonists to induce platelet aggregation. Values for platelet aggregation are expressed as percentage of light transmission standardized to PRP and PPP samples yielding 0 and 100% light transmission, respectively.

Tongue bleeding time = format: in vivo, beagle dogs; details: DDA 10, 30 or 50 mg/kg followed by rt-PA
Description: Tongue bleeding time (BT) was determined with the use of a SurgiCut™ (International Technidyne Corp, Edison, N.J.) device that makes a uniform incision 5 mm long and 1 mm deep on the upper surface of the tongue. The tongue lesion was blotted with filter paper every 20 sec until the transfer of blood to the filter paper was no longer apparent. The interval, from the time of the tongue incision until the time that blood was no longer transferred to the filter paper, was recorded as the tongue bleeding time.

[1] = Hemodynamic variables during canine thrombosis protocol; format: in vivo, beagle dogs
Aqueous dispersibility = format: physicochemical; details: sterile-filtered deionized water
Excerpt: In some embodiments, highly water-dispersible C40 carotenoid derivatives may include natural source RRR-lutein (β,ε-carotene-3,3′-diol) derivatives. Derivatives may be synthesized by esterification with inorganic phosphate and succinic acid, respectively, and subsequently converted to the sodium salts. Deep orange, evenly colored aqueous suspensions were obtained after addition of these derivatives to USP-purified water. […] Aqueous suspensions may be obtained without the addition of heat, detergents, co-solvents, or other additives.
Disodium disuccinate astaxanthin (DDA; see FIG. 1B) was synthesized from commercially available crystalline astaxanthin (Buckton Scott, India) as previously described in Frey, et al. (“The efficient synthesis of disodium disuccinate astaxanthin (Cardax).” Org Process Res Dev 8: 796-801, 2004.). The final product purity was 97% (as area under the curve) by HPLC analysis. DDA was dissolved directly in sterile-filtered deionized water. The maximum aqueous dispersibility of DDA is approximately 10 mM, or 8.64 mg/ml. Vehicle consisted of isotonic sterile 0.9% NaCl solution.

CC1=C(/C=C/C(C)=C/C=C/C(C)=C/C=C/C=C(C)/C=C/C=C(C)/C=C/C2=C(C)C(=O)C(OC(=O)CCC(=O)O)CC2(C)C)C(C)(C)CC(OC(=O)CCC(=O)O)C1=O (stereo not shown) [DDA, Disodium disuccinate astaxanthin]
ex vivo platelet aggregation responses to AA and ADP (platelet aggregation; DDA 10, 30 or 50 mg/kg, ADP 20 μM or AA 0.65 mM): dose dependently attenuated
ex vivo platelet aggregation (platelet aggregation; DDA 30 and 50 mg/kg doses): Significant reductions
tongue template bleeding time, baseline vs after drug treatment (Tongue bleeding time): similar
time for blood pressure to return to original values ([1]; DDA 50 mg/kg): ≤ 30 min
transient decrease in arterial blood pressure ([1]; DDA 50 mg/kg, seen in 5 dogs): < 15%
mean arterial blood pressure and heart rate throughout the protocol ([1]; all groups (DDA 10, 30, 50 mg/kg)): did not differ significantly
maximum aqueous dispersibility (Aqueous dispersibility): approximately 10 mM and ~8.64 mg/ml
